The results in this text go back to patent US6194450A, “Polyaromatic heterocyclic compounds and pharmaceutical compositions comprised thereof” (Centre International de Recherches Dermatologiques Galderma, priority 1995, dated 2001).

In assay [1] the test system is mouse embryonic teratocarcinoma F9 cells. Nature of the assay: Differentiation of mouse embryonic teratocarcinoma F9 cells (plasminogen activator secretion). Format: cell-based. The note with it: concentration producing half of the maximum amount of plasminogen activator secreted. An excerpt:
Their activities may also be measured in tests of cell transactivation using pretransfected recombinant RAR or RXR receptors (B. A. Bernard et al, Biochemical and Biophysical Research Communication, vol. 186, 977-983 (1992); M. F. Boehm et al, Journal of Medicinal Chemistry, 37, 408-414 (1994)).
This differentiation was characterized by the secretion of the plasminogen activator into the culture medium. The activity of the compound is expressed by the AC50 value, which represents the concentration of test compound which produces half of the maximum amount of plasminogen activator secreted.

In assay [2] the target is T1, RARβ (Homo sapiens, UniProt P10826).
T1 sequence (P10826 1-448 isoform P10826-2): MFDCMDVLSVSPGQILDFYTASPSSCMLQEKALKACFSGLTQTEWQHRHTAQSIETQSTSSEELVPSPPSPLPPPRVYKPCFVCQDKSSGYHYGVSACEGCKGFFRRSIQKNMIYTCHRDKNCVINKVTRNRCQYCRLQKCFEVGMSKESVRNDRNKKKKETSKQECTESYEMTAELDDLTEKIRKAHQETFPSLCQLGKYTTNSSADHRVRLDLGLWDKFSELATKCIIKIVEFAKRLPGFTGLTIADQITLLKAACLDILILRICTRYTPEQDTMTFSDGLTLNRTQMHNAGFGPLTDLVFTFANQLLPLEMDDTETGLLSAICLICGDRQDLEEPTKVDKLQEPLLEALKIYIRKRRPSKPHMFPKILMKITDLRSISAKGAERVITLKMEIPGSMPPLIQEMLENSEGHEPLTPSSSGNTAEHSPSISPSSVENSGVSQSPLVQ
Nature of the assay: RAR Transactivation, RARβ (HeLa cells cotransfected with human RAR expression vector and TREpp-tk-CAT reporter). Format: cell-based. Also on record: expressed in transfected cells. The note with it: concentration eliciting 50% of the maximum CAT activity. How it is done: (§1) (b) This test was carried out as described in the publication: Bernard B. A., Bernardon J. M., Delescluse C., Martin C., Lenoir M. C., Maignan J., Carpentier B., Pilgrim W. R., Reichert U. and Shroot B., Biochem. Biophys. […] HeLa cells were cotransfected with expression vectors coding for human RARs and the reporter plasmid TREpp-tk-CAT. The value given represents the concentration of test compound which elicited 50% of the maximum CAT activity.

The target of assay [3] is T2, RARγ (Homo sapiens, UniProt P13631).
T2 construct: expressed in transfected cells; host or cells: HeLa
T2 sequence (P13631 1-454): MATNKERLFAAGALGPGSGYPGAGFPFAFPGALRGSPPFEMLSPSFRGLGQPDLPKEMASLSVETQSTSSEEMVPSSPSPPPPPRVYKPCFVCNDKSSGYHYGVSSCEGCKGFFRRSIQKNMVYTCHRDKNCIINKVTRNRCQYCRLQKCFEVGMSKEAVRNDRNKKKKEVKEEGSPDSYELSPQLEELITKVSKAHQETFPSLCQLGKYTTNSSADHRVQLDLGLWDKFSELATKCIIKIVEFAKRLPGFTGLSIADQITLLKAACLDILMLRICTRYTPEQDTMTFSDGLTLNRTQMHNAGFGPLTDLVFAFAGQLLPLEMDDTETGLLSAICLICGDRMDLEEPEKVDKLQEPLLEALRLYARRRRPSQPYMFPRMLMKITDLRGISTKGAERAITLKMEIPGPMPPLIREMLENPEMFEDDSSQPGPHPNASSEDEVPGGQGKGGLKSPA
The experiment in a line: RAR Transactivation, RARγ (HeLa cells cotransfected with human RAR expression vector and TREpp-tk-CAT reporter). The note with it: concentration eliciting 50% of the maximum CAT activity. The class given is cell-based. As for the experimental part: as §1

Assay [4] has as its target T3, RARα (Homo sapiens, UniProt P10276).
T3 construct: expressed in transfected cells
T3 sequence (P10276 1-462): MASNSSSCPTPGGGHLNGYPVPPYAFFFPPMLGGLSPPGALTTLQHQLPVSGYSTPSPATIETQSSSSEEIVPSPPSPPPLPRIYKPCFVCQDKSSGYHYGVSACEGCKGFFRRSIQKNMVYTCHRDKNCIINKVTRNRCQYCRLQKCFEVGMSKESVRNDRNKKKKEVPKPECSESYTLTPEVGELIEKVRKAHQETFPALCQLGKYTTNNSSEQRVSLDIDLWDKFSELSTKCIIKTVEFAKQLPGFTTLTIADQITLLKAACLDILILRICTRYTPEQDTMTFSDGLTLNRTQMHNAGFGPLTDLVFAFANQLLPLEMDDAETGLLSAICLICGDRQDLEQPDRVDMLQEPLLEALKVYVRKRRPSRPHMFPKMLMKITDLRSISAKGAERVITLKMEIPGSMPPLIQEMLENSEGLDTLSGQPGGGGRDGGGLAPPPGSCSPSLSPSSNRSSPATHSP
The experiment in a line: RAR Transactivation, RARα (HeLa cells cotransfected with human RAR expression vector and TREpp-tk-CAT reporter). The class given is cell-based. The note with it: concentration eliciting 50% of the maximum CAT activity. How it is done:
as §1

In assay [5] the target is T1, RARβ. The experiment in a line: RAR binding, RARβ (competition binding, nuclear extracts of transfected cos-7 cells). The note with it: recombinant human receptors, cos-7 nuclear extracts; competition with [H^3]-4-(5,6,7,8-tetrahydro-5,5,8,8-tetramethyl-2-anthracenyl benzoic acid). Details: expressed in transfected cells; host or cells: COS-7 (nuclear extracts). As for the experimental part:
(c) The binding test was carried out on recombinant human receptors produced by the transfection of cos-7 cells with expression vectors coding for the RAR receptor subtypes.

As usually defined, the AC50 is the concentration at which the activity in the assay is half-maximal. A higher AC50 goes with weaker potency. With `CC1(C)CCC(C)(C)c2cc(C3=Cc4ccc(C(=O)O)cc4OC3)ccc21` [Example 2, 3-[(5,6,7,8-tetrahydro-5,5,8,8-tetramethyl-2-naphthyl)-2-H-1-benzopyran]-7-carboxylic acid], the AC50 in assay [1] is 58 nM; in assay [2] it was 2 nM; in assay [3], 15 nM; in assay [4], 22 nM.

As usually defined, the Kd is the concentration at which binding is half-saturated. In the case of `O=C(O)c1ccc2c(c1)OCC(c1ccc(O)c(C34CC5CC(CC(C5)C3)C4)c1)=C2` [Example 13, 3-[(3-(1-adamantyl)-4-hydroxphenyl)-2H-1-benzopyran]-7-carboxylic acid], the AC50 in assay [1] amounted to 107 nM; in assay [2] it was 20 nM; in assay [3], 6 nM; in assay [4] it was 47 nM. The Kd in assay [5] worked out at 3300 nM.

In the case of `CC(C)(C)c1cc(C2=Cc3ccc(C(=O)O)cc3OC2)cc(C(C)(C)C)c1O` [Example 11, 3-[(3,5-di-tert-butyl-4-hydroxyphenyl)-2-H-1-benzopyran]-7-carboxylic acid], the AC50 in assay [1] amounted to 320 nM; in assay [2] it was 77 nM; in assay [3], 157 nM. Besides, the Kd in assay [5] is 3680 nM.

In the case of `COc1ccc(C2=Cc3ccc(C(=O)O)cc3OC2)cc1C12CC3CC(CC(C3)C1)C2` [Example 1, 3-[(3-(1-adamantyl)-4-methoxyphenyl)-2H-1-benzopyran]-7-carboxylic acid], the half-maximal activity concentration (AC50) is 2 nM in assay [2], 4 nM in assay [3] and 8 nM in assay [4].
